Measured values from patent publication US11377442B2, “Small molecule agonists and antagonists of NR2F6 activity” (ZANDER THERAPEUTICS, INC., priority 2016, dated 2022).
Read-outs that look alike come from different tables or passages of the source.

Key:
Type in all cases: cell-based
Renilla_ERa = test: Renilla signal in ERα counterscreen (Renilla_ERa); conditions: read-out: Renilla ERalpha transient, cmpd/DMSO (mean)
ERα [1] = target: T1, ERα (Homo sapiens, UniProt P03372); test: Counterscreening, Firefly signal with ERα transient transfection (Firefly_ERa); conditions: 10 uM
T1 construct: expressed in transfected cells
T1 sequence (P03372 1-595): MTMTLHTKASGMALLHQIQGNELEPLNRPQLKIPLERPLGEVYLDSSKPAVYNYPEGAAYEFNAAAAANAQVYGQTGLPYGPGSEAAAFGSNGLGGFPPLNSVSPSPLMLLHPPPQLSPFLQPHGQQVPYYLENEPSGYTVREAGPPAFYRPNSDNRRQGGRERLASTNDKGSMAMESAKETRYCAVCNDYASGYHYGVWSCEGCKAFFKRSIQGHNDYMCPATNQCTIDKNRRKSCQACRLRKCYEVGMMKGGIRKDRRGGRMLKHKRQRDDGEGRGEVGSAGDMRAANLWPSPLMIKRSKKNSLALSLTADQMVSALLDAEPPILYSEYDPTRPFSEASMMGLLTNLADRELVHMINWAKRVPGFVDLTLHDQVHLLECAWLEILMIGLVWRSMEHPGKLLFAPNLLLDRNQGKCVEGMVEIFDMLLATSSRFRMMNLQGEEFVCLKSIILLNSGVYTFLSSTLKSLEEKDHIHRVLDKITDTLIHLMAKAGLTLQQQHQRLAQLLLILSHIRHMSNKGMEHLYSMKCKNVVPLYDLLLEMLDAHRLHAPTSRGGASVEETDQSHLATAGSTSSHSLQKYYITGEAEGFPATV
Protocol: The methodology for screening candidate compounds as NR2F6 agonists was as follows: For primary screening, hit criteria was ACT %>DMSO control+5*SD (DSO control) at 10 μM, or any compound with S/B>2. For rescreening, hit criteria was ACT %>DMSO control+3*SD (DSO control) in each replicate at 10 μM. For counterscreening, hit criteria was mean ACT<DMSO control+3*SD (DMSO control) with ERα transient transfection in duplicate at 10 μM.

NR2F6 = target: T2, NR2F6 (Homo sapiens, UniProt P10588); test: NR2F6 agonist screening, Firefly signal cmpd/DMSO
T2 construct: expressed in transfected cells; also transient transfection
T2 sequence (P10588 1-404): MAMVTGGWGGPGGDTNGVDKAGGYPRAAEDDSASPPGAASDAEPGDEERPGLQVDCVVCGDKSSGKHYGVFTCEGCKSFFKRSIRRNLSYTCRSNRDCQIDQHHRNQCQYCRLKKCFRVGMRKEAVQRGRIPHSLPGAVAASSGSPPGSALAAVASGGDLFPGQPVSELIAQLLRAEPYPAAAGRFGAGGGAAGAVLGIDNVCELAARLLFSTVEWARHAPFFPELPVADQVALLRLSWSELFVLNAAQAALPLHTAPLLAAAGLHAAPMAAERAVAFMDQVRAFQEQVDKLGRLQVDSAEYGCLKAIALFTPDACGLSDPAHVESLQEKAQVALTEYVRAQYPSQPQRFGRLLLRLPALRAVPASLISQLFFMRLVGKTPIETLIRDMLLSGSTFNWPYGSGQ

ERα [2] = target: T1, ERα; test: Counterscreening, Firefly signal with ERα transient transfection (Firefly_ERa)
Renilla = Renilla signal in NR2F6 agonist screening, cmpd/DMSO; conditions: Renilla, read-out: Renilla F4, cmpd/DMSO (mean)

| Firefly ERalpha transient, cmpd/DMSO (mean) (ERα [1]) | Firefly F4, cmpd/DMSO (mean) (NR2F6; 2 uM, clone F4) | Firefly F4, cmpd/DMSO (mean) (NR2F6; 10 uM, clone F4) | Firefly F4, cmpd/DMSO (mean) (NR2F6; 40 uM, clone F4) | Firefly ERalpha transient, cmpd/DMSO (mean) (ERα [2]; 2 uM) | Firefly ERalpha transient, cmpd/DMSO (mean) (ERα [2]; 40 uM) | Structure (SMILES) | fold induction at 2 µM (Renilla_ERa) | fold induction at 10 µM (Renilla_ERa) | fold induction at 40 µM (Renilla_ERa) | fold induction at 2 µM (Renilla; clone F4) | fold induction at 10 µM (Renilla; clone F4) | fold induction at 40 µM (Renilla; clone F4) | also measured |
| --- | --- | --- | --- | --- | --- | --- | --- | --- | --- | --- | --- | --- | --- |
| 0.3 | 0.8 | 0.4 | 0.5 | 1.0 | 0.4 | CNc1c(C#N)c(C(F)(F)F)nc2ccc(Oc3ccccc3)cc12 [Compound Z53] | 1 | 0.6 | 0.5 | 0.7 | 0.7 | 0.6 | – |
| 2.2 | 1.9 | 1.5 | 1.2 | 2.6 | 7.2 | CCOC(=O)c1cnc2c(Cl)cc(Cl)cc2c1NCCCN(C)C [Compound Z35] | 1.1 | 1.3 | 0.9 | 1.1 | 2 | 0.7 | – |
| 0.4 | 0.6 | 0.7 | 0.7 | 0.7 | 0.7 | N#Cc1c(C(F)(F)F)nc2ccc(Oc3ccccc3)cc2c1NCCc1ccc(Cl)cc1 [Compound Z52] | 1.1 | 0.8 | 0.7 | 0.8 | 0.5 | 0.6 | – |
| 0.6 | 1.1 | 0.9 | 0.9 | 0.9 | 0.9 | O=c1cccc2n1CC1CC2CN(c2nc(NCCC3=CCCCC3)nc(N3CCOCC3)n2)C1 (stereo not drawn) [Compound 39] | 1.1 | 1.2 | 1.2 | 1.2 | 1.4 | 1 | – |
| – | – | – | – | – | – | CCOC(=O)c1cnc2c(C)cc(C)cc2c1NCCCN [Compound Z58] | – | – | – | – | – | – | fold induction at 2 µM (Renilla_ERa; Table 15): 1.2; fold induction at 10 µM (Renilla_ERa; Table 15): 1.1; fold induction at 40 µM (Renilla_ERa; Table 15): 0.7; Firefly ERalpha transient, cmpd/DMSO (mean) (ERα [1]; Table 15): 6.5; Firefly F4, cmpd/DMSO (mean) (NR2F6; Table 15, 2 uM): 0.9; Firefly F4, cmpd/DMSO (mean) (NR2F6; Table 15, 10 uM): 4.5; Firefly F4, cmpd/DMSO (mean) (NR2F6; Table 15, 40 uM): 0.8; Firefly ERalpha transient, cmpd/DMSO (mean) (ERα [2]; Table 15, 2 uM): 1.5; Firefly ERalpha transient, cmpd/DMSO (mean) (ERα [2]; Table 15, 40 uM): 0.8; fold induction at 2 µM (Renilla; Table 15): 1.3; fold induction at 10 µM (Renilla; Table 15): 1.2; fold induction at 40 µM (Renilla; Table 15): 0.8 |
| 0.8 | 0.6 | 0.6 | 0.7 | 1.3 | 0.4 | N#Cc1c(C(F)(F)F)nc2ccc(Oc3ccccc3)cc2c1N1CCNCC1 [Compound Z51] | 1.1 | 0.9 | 0.3 | 0.8 | 0.7 | 0.3 | – |
| 1.3 | 1.3 | 1.5 | 0.7 | 1.5 | 0.5 | O=C(O)c1ccc(-n2ncc(Cl)c(Cl)c2=O)cc1 [Compound 44] | 1.3 | 1.2 | 0.3 | 1.1 | 1.1 | 0.3 | – |
